# Results published in ChEMBL document CHEMBL1149008, “Antitumor agents, 81. Justicidin-A and diphyllin, two cytotoxic principles from Justicia procumbens” (1986).
# System: KB
# Assay: Cytotoxicity against human KB cells
# Type: functional
# Conditions: read-out: ED50 (the source's name)
row,SMILES,EC50
1,O=C1OCc2c1cc1cc3c(cc1c2-c1ccc2c(c1)OCO2)OCO3,> 10.5 µg/mL
2,COc1cc2c(O)c3c(c(-c4ccc5c(c4)OCO5)c2cc1OC)C(=O)OC3 [DIPHYLLIN],< 1 µg/mL
3,COc1cc2c(OC)c3c(c(-c4ccc5c(c4)OCO5)c2cc1OC)C(=O)OC3 [JUSTICIDIN A],< 1 µg/mL
4,COc1c2c(c(-c3ccc4c(c3)OCO4)c3cc4c(cc13)OCO4)COC2=O [NEOJUSTICIN A],9 µg/mL
5,COc1cc2c(OC)c3c(c(-c4ccc5c(c4)OCO5)c2cc1OC)COC3=O [NEOJUSTICIN B],> 10.5 µg/mL
